Patent publication US8364409B2 (priority 2006, dated 2013)

System: sensitive M bovis strain
Assay type: cell-based, Mycobacterium bovis BCG

NNC(=O)c1ccncc1 [INH, isoniazid]
stress response (Impedance Response profile): varies with the drug concentration
